In patent publication US20140348807A1, “PROCESS FOR THE PREPARATION OF A BIOMASS COMPRISING PLANTARICIN AND USES THEREOF IN MEDICAL FIELD” (GIULIANI S.p.A., priority 2010, published 2014):
Where two headings read alike, the source gives them in different places. Ends that are not written are not given here.

Experiments:
Caco-2/TC7 cells [1] = test: Caco-2/TC7 cell viability, Neutral Red absorption assay; format: cell-based, Human; details: for viability of Caco-2/TC7 cells (Neutral Red) vs DMEM negative control: 2.5 μg/ml, incubation 24-72 hours; for negative effect of IFN-γ on Caco-2/TC7 viability under simultaneous plantaricin A treatment: IFN-γ 1000 U/ml + plantaricin A 2.5 μg/ml
Experimental: Human Caco-2/TC7 cells (TC7 clone) have been cultured in Dulbecco medium (DMEM), added with calf serum (10%), not essential amino acids (1%), gentamycin/streptomycin (50 μg/ml), glutamine (2 mM) and 4-2-hydroxyethyl-1-piperazinil-etansulfonic acid (1%) (Di Cagno et al., 2010. Quorum sensing in sourdough Lactobacillus plantarum DC400: induction of plantaricin A (PlnA) under co-cultivation with other lactic acid bacteria and effect of PlnA on bacterial and Caco-2 cells. Proteomics in press). Cell viability has been determined with absorption assay using Neutral Red dye (Balls et al., 1987. Approaches to validation alternative methods in toxicology. In: Goldber A. M. (Ed). N.Y. Academic Press pp. 45-58). After 24-72 hour treatment with various preparations, cells have been washed with PBS buffer and incubated for 4 hours at 37° C. with a Neutral Red solution (33 mg/I). Successively, the cells have been again washed with PBS buffer and treated with lysis solution (50% ethanol in 1% acetic acid containing water). Plate reading has been carried out using Novapath plate reader (Biorad, Hercules, Calif.). Di Cagno et al., 2010. Quorum sensing in sourdough Lactobacillus plantarum DC400: induction of plantaricin A (PlnA) under co-cultivation conditions with other lactic acid bacteria and effect of PlnA on bacterial and Caco-2 cells. Proteomics in press).

Caco-2/TC7 cells [2] = test: TEER of Caco-2/TC7 cell layer; format: cell-based, Human; details: for negative effect of IFN-γ on Caco-2/TC7 TEER with added plantaricin A: IFN-γ 1000 U/ml + plantaricin A 2.5 μg/ml
Experimental: For TEER determination Caco-2/TC7 cells have been inoculated (7.5×10^4 cells/ml) in a 24 well plate and a polyethylene filter (0.4 μm pore). Before the treatment, the cells have been incubated for 21 days at 37° C. Treatments with various preparations have been carried out for 18, 24 and 48 hours. Integrity of the cellular layer therefore has been determined by means of TEER determination.

[3] = system: human NCTC 2544 keratinocyte cell line; format: cell-based; details: 0.1 μg/ml
Experimental: The used cell line is a human NCTC 2544 keratinocyte cell line (Perry, V. P., Sanford, K. K., Evans, V. J., Hyatt, G. W., Earle, W. R., 1957. Establishment of clones of epithelial cells from human skin. J Natl Cancer Inst. 18 (5): 709-717) cultured in sterile flasks, incubated at 37° C. in humid atmosphere at 5% CO2 in MEM (Minimum Essential Medium) culture medium added with 10% bovine calf serum (FBS), 2 mM L-glutamine, 1% not essential amino acids, in the presence of 1% penicillin and streptomycin. Cells grow in vitro adhering to culture plate surface as a monolayer.
The experiment firstly involves the development of confluent cell monolayer. Successively the cut is carried out and the generated “gap” is observed using microscope as cells gradually moving repair the damage.
NCTC 2544 cells are plated and cultured at 37° C., with 5% CO2 for 24 hours.
After 24 hours complete growth medium is replaced with serum free medium to avoid the serum effect on cell proliferation and cells are incubated for further 24 hours at 37° C., 5% CO2.
After 24 hours the cell monolayer is mechanically damaged by mild 200 μl pipette tip brushing tracking a ˜1 mm wide horizontal line. Then the monolayer is washed and after addition of substances to be tested, the plates are incubated at 37° C., 5% CO2 for 72 hours.
the effect of the substances on cell motility is evaluated using phase contrast reverse microscope, acquiring images at various opportunely selected analysis times.
the damage remedy is determined measuring the clear area between the cut two migration fronts at 0, 4, 8, 12, 24, 48, 72 hours after the cut, using an image processing software (Leica application Suite).
After the cut on the cellular monolayer has been carried out using a 200 μl pipette tip and the cells within the gap between two cut lines completely removed, said cells are treated with synthetic and co-culture deriving Plantaricin at the following concentrations: 0.1-1-10 μg/ml. Also positive and negative controls (connectivine at 100 μg/ml) have been duplicate tested.
Images on the same cut area have been acquired at time 0 and after 4, 8, 12, 24, 48 and 72 hours, to monitor the cell migration in the cut area.

[4] = system: Cultured human keratinocytes; test: Wound healing assay on cultured human keratinocyte monolayer (Example 2); format: cell-based; details: 1 hour incubation with stimulus (Plantaricin A 2.5 μg/ml), then 24 hours
Experimental: Cultured human keratinocytes have been incubated with Plantaricin A (2.5 μg/ml) or Plantaricin A containing biomass for 1 hour.
At the end of the incubation, the cells have been washed and culture medium restored.
The test consists of carrying out a mechanical interruption in the continuity of the cellular monolayer in order the treatment effect in favouring or not the keratinocyte ability to migrate beyond the damage border and therefore “heal the lesion” to be evaluated.
To this end the keratinocyte monolayer, treated as above described, was incubated over aditional 24 hours after stimulus application and then fixed and stained using ematoxylin/eosin staining. Images have been observed with light microscope using 5× objective.
For each image maximum cell migration limits and distance or gap there between have been detected and calculated, respectively (FIG. 9-10).

In the case of “KSSAYSLQMGATAIKQVKKLFKKWGW [chemically synthesized plantaricin A]”, the “viability of Caco-2/TC7 cells (Neutral Red) vs DMEM negative control” value (Caco-2/TC7 cells [1]) is reported as “Same result”, the “negative effect of IFN-γ on Caco-2/TC7 viability under simultaneous plantaricin A treatment” value (Caco-2/TC7 cells [1]) is reported as “completely eliminated” and the “negative effect of IFN-γ on Caco-2/TC7 TEER with added plantaricin A” value (Caco-2/TC7 cells [2]) is reported as “eliminated also in this case the negative effects”. For the same substance, the “percentage of migrated cells in comparison to the positive control” value (shortened to “percentage of migrated cells”) ([3]; 1st of six time values (4 h)) was 158.30%, the “percentage of migrated cells” value ([3]; 2nd of six time values (8 h)) was 115.15% and the “percentage of migrated cells” value ([3]; 3rd of six time values (12 h)) was 124.32%. The “percentage of migrated cells” value ([3]; 4th of six time values (24 h)) was 141.82%, the “percentage of migrated cells” value ([3]; 5th of six time values (48 h)) was 141.91% and the “percentage of migrated cells” value ([3]; 6th of six time values (72 h)) was 128.51%.
With hyaluronic acid the “gap between the wound margins vs control cells” value [4] was “lesion gap is narrower than for not treated cells”.
For “KSSAYSLQMGATAIKQVKKLFKKWGW [purified plantaricin A]”, the “viability of Caco-2/TC7 cells (Neutral Red) vs DMEM negative control” value (Caco-2/TC7 cells [1]) was “remarkably increased”, the “negative effect of IFN-γ on Caco-2/TC7 viability under simultaneous plantaricin A treatment” value (Caco-2/TC7 cells [1]) was “completely eliminated” and the “TEER values for Caco-2/TC7 cells” value (Caco-2/TC7 cells [2]; 2.5 μg/ml, 24 and 48 hours, vs DMEM) was “remarkable increase”. For the same substance, the “negative effect of IFN-γ on Caco-2/TC7 TEER with added plantaricin A” value (Caco-2/TC7 cells [2]) was “eliminated also in this case the negative effects”.
